According to patent publication US11319300B2, “Polyfluoro-substituted aromatic heterocyclic derivative, pharmaceutical composition containing same, and applications thereof” (ZHEJIANG UNIVERSITY, priority 2017, dated 2022):

How the values were obtained:
PKA = PKA (Homo sapiens, UniProt P17612); test: Kinase selectivity assay (Caliper), PKA; type: biochemical; settings: PKA versus Akt1
Description: (§1) A Sixty-Second Embodiment: Kinase Selectivity Assay Test Compound Configuration 1) DMSO was configured with 50× compound stock solution for use. 2) Each compound was diluted in a 96-well plate at a concentration gradient of 5 to 7 to ensure a drug volume of 10 μl per well, to 6 to 7 concentrations, while 100 μl of DMSO was added as a blank control group, and a negative control group without an enzyme substrate was added. 3) Another 96-well plate was prepared, and 10 μl of the above compound was added to 90 μl of 1×kinase base buffer and mixed for 10 min. The board to be tested was prepared: 1) Take a mixture of 5 μl to 384-well plates in a 96-well plate of the above configuration, and per compound has two replicate wells. Kinase Reaction: 1) Configurate a 2.5×kinase solution and add the corresponding 1×kinase base buffer; 2) Configurate a 2.5× polypeptide solution, add a FAM-labeled polypeptide and ATP in a 1×kinase base buffer; 3) 10 μl of 2.5× kinase solution was added to the 384-well plate to be tested, put at room temperature for 10 min, then 10 μl of 2.5× polypeptide solution was added, and after reacting at 28° C. for 1 h, 25 μl of reaction stop buffer was added. The Caliper program reads the plate and uses the data to obtain the IC50 value of the corresponding compound inhibiting kinase. […]

PKC = test: Kinase selectivity assay (Caliper), PKC; type: biochemical; settings: PKC versus Akt1
Description: as §1

hERG potassium channel = target: T1, hERG potassium channel (Homo sapiens, UniProt Q12809); test: hERG potassium channel inhibition, manual whole-cell patch clamp in CHO hERG cells; type: cell-based; settings: 3 μM, CHO hERG cells, patch clamp
T1 construct: host or cells: CHO
Description: A Sixty-Third Embodiment: hERG Potassium Channel Inhibition Activity Experiment
The cells used in this assay were CHO cell lines transfected with hERG cDNA and stably expressing the hERG channel (supplied by Sophion Bioscience, Denmark). The cells were cultured in medium containing the following components (all from Invitrogen): Ham's F12 medium, 10% (v/v) inactivated fetal bovine serum, 100 μg/ml hygromycin B, and 100 μg/ml Geneticin. 2.1.2CHO hERG cells were grown in a Petri dish containing the above culture solution, and cultured in an incubator containing 5% of CO2 at 37° C. 24 to 48 hours prior to electrophysiological experiments, CHO hERG cells were transferred to circular glass slides placed in petri dishes and grown under the same culture and culture conditions as above. The density of CHO hERG cells on each circular slide requires that most cells achieve independent, individual requirements.
2. Compound Treatment and Dilution
To obtain the IC50 of the compound, we selecte the following concentrations (30, 10, 3, 1, 0.3, and 0.1 μM) for testing. Prior to testing, the […] were first diluted to 10, 3, 1, 0.3, and 0.1 mM stock solution in gradual dilution with DMSO and then diluted to the final μM test concentration with extracellular fluid. The final concentration of DMSO in each of the other compound solutions was 0.1% except that the DMSO concentration in the 30 μM compound test solution was 0.3%. The positive control Cisapride (cishabili) was tested at a concentration of 0.1 μM. All compound solutions were sonicated and shaken for 5 to 10 minutes to ensure complete dissolution of the compound.
3. Electrophysiological Recording System and Data Analysis
This experiment uses a manual patch clamp system (HEKA EPC-10 signal amplifier and digital conversion system, purchased from HEKA Electronics, Germany) for the recording of whole cell currents. Round slide with CHO hERG cells on the surface was placed in an electrophysiology recording cell under an inverted microscope. The extracellular fluid was continuously perfused in the recording tank (about 1 ml per minute). The experimental procedure uses conventional whole-cell patch clamp current recording techniques. Unless otherwise stated, the experiments were carried out at regular room temperature (˜25° C.). The cells were clamped at a voltage of −80 mV. The cell clamp voltage was depolarized to +20 mV to activate the hERG potassium channel, and after 5 seconds it was clamped to −50 mV to eliminate inactivation and generate tail current. The tail current peak was used as the value of the hERG current magnitude. After the hERG potassium current recorded in the above step was stabilized under the continuous extracellular fluid perfusion in the recording tank, the drug to be tested can be superimposed and filled until the inhibitory effect of the drug on the hERG current reaches a steady state. Generally, the recent three consecutive current recording lines were recombined as a criterion for judging whether or not the state is stable. After reaching a steady state, extracellular fluid perfusion rinse until hERG current returns to the size before adding drug. One cell can test one or more drugs, or multiple concentrations of the same drug, but need to be flushed with extracellular fluid between different drugs. Cisapride (cisapride, purchased from Sigma) was used in the experiment as a positive control to ensure that the cells used were of normal quality. The test data was analysed by HEKA Patchmaster, Microsoft Excel and data analysis software provided by Graphpad Prism.

AKT1/PKBα = target: T2, AKT1/PKBα (Homo sapiens, UniProt P31749); test: Akt1 enzyme inhibitory activity, AKT1/PKBα KinEASE FP Fluorescein Green Assay; type: biochemical; settings: fluorescence polarization kit assay; read-out: Akt1 IC50 (grade)
T2 construct: purchased
Description: Compound AZD5363 (NCT02208375, NCT02208375, NCT01625286), which have entered the clinical phase II study, was used as a positive control, and the compound was assayed against common tumour cell lines (human ovarian cancer cell line OVCAR-8 and human colon cancer cell line HCT-116) by MTT assay, at the same time, the akt1 enzyme inhibitory activity (IC50) was evaluated using a commercial Akt1 kit.
2) Test method for the inhibitory activity of the compound of the present invention against Akt1 enzyme:
The AKT1/PKBα KinEASE™ FP Fluorescein Green Assay (Kinase Green Fluorescence Detection System) was used to detect the inhibitory activity of the compound on AKT1/PKBα.
Fluorescence polarization detection protein kinase B employs the principle of a competitive reaction: a fluorescently labeled phosphorylated tracer and an unlabeled phosphorylated product produced by the reaction of protein kinase B will compete with the anti-serine antibody for binding. In a reaction mixture […], when a part of the fluorescent tracer binds to the antibody, it causes a higher polarization value. However, in the reaction solution mixture containing the phosphorylated product, less tracer binds to the antibody (the fluorescent tracer was replaced from the antibody) and the emitted signal was depolarized. Therefore, the change in polarization was directly related to the activity of protein kinase B in the reaction.
The compound of the present invention and the positive control AZD5363 were dissolved in dimethyl sulfoxide (DMSO) and diluted to a concentration of 50 μM. At room temperature, 0.25 μl of the compound sample and the positive control at a concentration of 50 μM were taken and added to the 384-well plate, and three parallel wells were set for each sample, and then 10 μl of STK Substrate 3, Working Solution, 5 μl AKT1/PKBα Working Solution, 10 μl ATP Working Solution were added to each sample well plate with vibrating gently and shaking for a few minutes. The reaction starts after 10 μl of ATP Working Solution was added to the well, and the reaction was timed at room temperature for 1 hour. After one hour, 5 μl of STK Stop Mix and 5 μl of STK Antibody Mix were added to each well respectively to stop the reaction. After the addition completes, it was allowed to stand at room temperature for four hours, and the polarization value of the sample was detected by the fluorescence polarization of the microplate reader (it was effective to detect its signal within 24 hours), and the inhibition rate of the compound was calculated by the polarization value, and then IC50 was calculated.
Four sets of controls were set in the experiment, namely Buffer Control Wells, Tracer Control Wells, No Enzyme Wells, and a blank dimethyl sulfoxide control. The resulting data was used to calculate the inhibition rate.
The activity of the compound was divided into three grades according to the size of the IC50 of the Akt inhibitory activity: “+++”, 1 nM<IC50<10 nM; “++”, 10 nM<IC50<50 nM; “+”, 50 nM<IC50.

HGC27 = test: Tumour cell proliferation inhibition, MTT assay, HGC27; type: cell-based, human; settings: Homo sapiens, HGC-27, 72 h
CEM-C1 = test: Tumour cell proliferation inhibition, MTT assay, CEM-C1; type: cell-based, human; settings: Homo sapiens, CEM/C1, 72 h
Akt2 = Akt2 (Homo sapiens, UniProt P31751); test: Kinase selectivity assay (Caliper), Akt2; type: biochemical; settings: Akt2 versus Akt1
Description: as §1

Akt3 = Akt3 (Homo sapiens, UniProt Q9Y243); test: Kinase selectivity assay (Caliper), Akt3; type: biochemical; settings: Akt3 versus Akt1
Description: as §1

Chain of Akt2 (P31751 whole entry): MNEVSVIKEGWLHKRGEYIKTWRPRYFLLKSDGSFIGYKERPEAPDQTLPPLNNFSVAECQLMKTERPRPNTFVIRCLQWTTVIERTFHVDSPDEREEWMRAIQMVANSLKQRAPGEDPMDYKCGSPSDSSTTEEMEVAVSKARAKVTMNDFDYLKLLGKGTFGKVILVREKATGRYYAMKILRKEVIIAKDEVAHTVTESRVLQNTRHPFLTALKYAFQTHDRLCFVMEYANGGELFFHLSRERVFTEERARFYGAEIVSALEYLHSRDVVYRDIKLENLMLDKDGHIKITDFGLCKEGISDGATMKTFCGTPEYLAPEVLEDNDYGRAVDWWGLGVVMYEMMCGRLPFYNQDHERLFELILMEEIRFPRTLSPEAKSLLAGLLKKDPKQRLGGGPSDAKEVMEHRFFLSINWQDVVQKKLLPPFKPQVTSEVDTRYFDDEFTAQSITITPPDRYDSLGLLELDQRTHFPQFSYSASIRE
T2 sequence (P31749 whole entry): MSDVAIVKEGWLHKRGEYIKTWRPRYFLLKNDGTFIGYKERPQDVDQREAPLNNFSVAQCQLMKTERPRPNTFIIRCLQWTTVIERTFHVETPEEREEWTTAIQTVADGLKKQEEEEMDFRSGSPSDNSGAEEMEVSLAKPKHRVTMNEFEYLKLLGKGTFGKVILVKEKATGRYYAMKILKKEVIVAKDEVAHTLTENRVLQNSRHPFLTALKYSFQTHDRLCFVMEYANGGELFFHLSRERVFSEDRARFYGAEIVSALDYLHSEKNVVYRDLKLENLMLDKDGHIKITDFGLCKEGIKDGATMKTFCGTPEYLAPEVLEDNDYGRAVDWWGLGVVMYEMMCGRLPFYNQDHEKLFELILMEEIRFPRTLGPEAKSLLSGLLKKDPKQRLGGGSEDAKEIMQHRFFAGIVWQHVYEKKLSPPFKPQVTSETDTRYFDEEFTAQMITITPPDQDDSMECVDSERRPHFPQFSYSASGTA
Chain of Akt3 (Q9Y243 whole entry): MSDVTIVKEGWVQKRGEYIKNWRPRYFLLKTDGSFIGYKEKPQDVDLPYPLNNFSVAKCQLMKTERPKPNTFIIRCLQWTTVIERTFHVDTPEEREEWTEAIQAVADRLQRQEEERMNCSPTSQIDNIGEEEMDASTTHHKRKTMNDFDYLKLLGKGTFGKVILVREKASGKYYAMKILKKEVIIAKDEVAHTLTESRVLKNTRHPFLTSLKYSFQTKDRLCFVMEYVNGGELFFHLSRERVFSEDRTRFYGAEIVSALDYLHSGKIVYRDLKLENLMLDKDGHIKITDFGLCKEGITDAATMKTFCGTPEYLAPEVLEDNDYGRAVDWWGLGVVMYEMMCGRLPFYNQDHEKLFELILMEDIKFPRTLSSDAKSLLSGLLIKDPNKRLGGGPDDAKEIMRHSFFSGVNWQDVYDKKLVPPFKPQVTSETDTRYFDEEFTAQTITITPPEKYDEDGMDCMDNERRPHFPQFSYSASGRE
T1 sequence (Q12809 whole entry): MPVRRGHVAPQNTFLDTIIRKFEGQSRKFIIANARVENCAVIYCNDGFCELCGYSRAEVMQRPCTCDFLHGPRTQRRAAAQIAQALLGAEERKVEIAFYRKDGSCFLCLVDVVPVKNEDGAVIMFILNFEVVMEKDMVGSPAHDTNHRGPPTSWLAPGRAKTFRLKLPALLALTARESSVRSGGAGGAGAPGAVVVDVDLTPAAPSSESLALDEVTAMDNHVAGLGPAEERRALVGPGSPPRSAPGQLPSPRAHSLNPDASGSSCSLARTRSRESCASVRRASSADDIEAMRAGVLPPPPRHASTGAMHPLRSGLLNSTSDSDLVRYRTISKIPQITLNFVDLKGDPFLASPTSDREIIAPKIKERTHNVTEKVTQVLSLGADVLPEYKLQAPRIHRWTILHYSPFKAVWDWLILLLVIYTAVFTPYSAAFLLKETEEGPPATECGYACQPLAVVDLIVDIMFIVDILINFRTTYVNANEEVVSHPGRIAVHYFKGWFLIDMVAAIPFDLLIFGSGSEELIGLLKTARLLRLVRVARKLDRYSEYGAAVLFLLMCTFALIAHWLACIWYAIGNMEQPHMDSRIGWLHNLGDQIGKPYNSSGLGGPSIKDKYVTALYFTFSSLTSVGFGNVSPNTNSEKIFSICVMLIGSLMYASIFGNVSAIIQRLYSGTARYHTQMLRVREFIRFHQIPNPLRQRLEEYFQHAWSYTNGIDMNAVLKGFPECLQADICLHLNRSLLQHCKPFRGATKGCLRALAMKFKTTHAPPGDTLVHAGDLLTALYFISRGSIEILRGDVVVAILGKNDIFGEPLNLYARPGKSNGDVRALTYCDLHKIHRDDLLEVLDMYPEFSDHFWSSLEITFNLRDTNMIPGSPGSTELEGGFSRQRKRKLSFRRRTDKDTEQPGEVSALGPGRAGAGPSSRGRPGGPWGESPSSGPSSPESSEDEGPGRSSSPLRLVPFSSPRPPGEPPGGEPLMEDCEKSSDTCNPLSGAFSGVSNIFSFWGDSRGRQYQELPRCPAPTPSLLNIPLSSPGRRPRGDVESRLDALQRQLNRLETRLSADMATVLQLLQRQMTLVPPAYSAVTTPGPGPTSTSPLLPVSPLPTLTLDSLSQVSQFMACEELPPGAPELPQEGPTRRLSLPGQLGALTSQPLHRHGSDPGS

| Compound | Kinase selectivity: (PKA inhibitory activity IC50)/(Akt1 inhibitory activity IC50) (PKA) | Kinase selectivity: (PKC inhibitory activity IC50)/(Akt1 inhibitory activity IC50) (PKC) | hERG (Inhibition rate at 3 μM concentration) (hERG potassium channel) [%] | IC50 (AKT1/PKBα) [nM] | IC50 (HGC27) [nM] | IC50 (CEM-C1) [nM] | Kinase selectivity: (Akt2 inhibitory activity IC50)/(Akt1 inhibitory activity IC50) (Akt2) | Kinase selectivity: (Akt3 inhibitory activity IC50)/(Akt1 inhibitory activity IC50) (Akt3) |
| --- | --- | --- | --- | --- | --- | --- | --- | --- |
| Cn1ncc(Cl)c1-c1cc(C(=O)N[C@H](CN)Cc2ccc(F)c(F)c2)oc1Cl [GSK2141795, reference compound] | 1.2-times | 28-times | 50 |  |  |  |  |  |
| Cn1nccc1-c1cc(F)c(C(=O)N[C@@H]2CNCC[C@H]2c2ccc(F)c(F)c2)c(F)c1 [VII-12] | 1.3-times |  |  | 10 to 50 | 50 | 210 | 5.5-times | 4.1-times |
